# Data: patent publication EP0381656A1, “Alcohol-soluble/water-insoluble oil-containing antifreeze” (FIRST BRANDS CORPORATION, priority 1989, dated 1990)
# Like-named read-outs stand apart in the source and are kept apart here.
# Legend:
# [1] = format: physicochemical
# Experimental: The "alcohol-soluble/water-insoluble oil" (component (b)) is preferably characterized as having a minimum solubility in the selected alcohol of at least about 0.4 wt. % at 25°C at 1 atm pressure, preferably greater than 1.0 wt, % at 25°C at 1 atm pressure. The "alcohol-soluble/-water-insoluble oil" component is further characterized as being practically insoluble in a 50/50 (weight basis) mixture of the alcohol and water such that the alcohol-soluble/water-insoluble oil has a solubility in the alcohol/water mixture of less than about 0.25 wt. % at 25°C and a pressure of 1 atm, preferably less than about 0.05 at 25°C and a pressure of 1 atm. The solubility of the alcohol-soluble/water-insoluble oil in the alcohol or alcohol/water may be determined by equilibrating a concentration sequence of the oil in the alcohol under stirred conditions. After saturation for 2 hours at the specified temperature, any excess over saturation is estimated from the appearance of the solution. Insolubility is easily detected by visual observation. Formation of two distinctive phases or a turbid suspension indicates substantial insolubility. Turbidity and transmittance can be used to objectively determine if any insoluble material is present as a suspension. For example, when ethylene glycol (EG) or 1/1 mixture of EG/water are used for calibration, they both have a turbidity of 0.7 NTU (Nephelometric Turbidity Unit as measured with the HACH model 2100A turbidimeter) and 100% transmittance (or absorbance=0) measured with filtered light with 470nm wavelength using a Brinkmann PC/600 spectrophotometer. […] When 0.6% hexanol was added to the 1/1 EG/water solution, the turbidity […] to 1.9 NTU and the transmittance decreased to 98% (absorbance of 0.01). When 1% hexanol was added to 1/1 EG/water, the turbidity increased to 3 NTU and the transmittance decreased to 93% (absorbance of 0.03). […]
# [2] = Contact angle of polypropylene glycol oil drop on surface-modified metal (Goniometer); format: physicochemical
# [3] = as above; format: physicochemical; conditions: 0.1 wt. percent surface modifier
# From the text: The effectiveness of a surface modifier compound in modifying the metal surface to be treated with a alcohol-soluble/water-insoluble oil may be evaluated by first treating a metal surface with a selected surface modifier compound. A selected oil droplet is then placed on the modified metal surface and the contact angle measured using a Goniometer.
# A series of contact angle measurements were made using for convenience, a polypropylene glycol having a molecular weight of about 1000 as the oil. The contact angle measurement is made by placing the drop of polypropylene glycol on an aluminum surface submerged in a solution having 0.1 wt. percent of a selected surface modifier compound in an aqueous working antifreeze solution having 67% weight percent water, a reserve alkalinity of 50, in borate buffered glycol and having a selected pH of approximately 8. The measured contact angles were as follows:
# Several additional surface modifiers were evaluated according to the above procedure to determine their use in wetting the surface of one or more metals commonly employed in automotive cooling systems. The contact angles for aluminum (Al) cast iron (Fe), steel, brass, ASTM solder (ASTM), copper (Cu) and Modine solder (Modine) were measured according to the procedure of this Example 2 using the following surface modifiers: […]
turbidity ([1]; 0.6% in 1/1 EG/water) [NTU],turbidity ([1]; 1% in 1/1 EG/water) [NTU],CONTACT ANGLES (At 5 Minutes) Modine Solder ([2]; 0.02% surface modifier) [°],CONTACT ANGLES (At 5 Minutes) Modine Solder ([2]; 0.05% surface modifier) [°],CONTACT ANGLES (At 5 Minutes) Modine Solder ([2]; 0.1% surface modifier) [°],Compound,turbidity and transmittance ([1]; below the solubility limit (5% in EG and 0.2% in 1/1 EG/water)),CONTACT ANGLES (At 5 Minutes) ASTM Solder [3] [°],CONTACT ANGLES (At 5 Minutes) Al [3] [°],CONTACT ANGLES (At 5 Minutes) Brass [3] [°],CONTACT ANGLES (At 5 Minutes) Cu [3] [°],CONTACT ANGLES (At 5 Minutes) Fe [3] [°],CONTACT ANGLES (At 5 Minutes) Steel [3] [°]
1.9,3,–,–,–,CCCCCCO [hexanol],stayed essentially the same as that of the solvent,–,–,–,–,–,–
–,–,68,52,51,CCCCCCCC/C=C\CCCCCCCC(=O)O [oleic acid],–,–,–,–,–,–,–

# The remaining lines, values behind:
Compound,turbidity ([1]; 0.6% in 1/1 EG/water) [NTU],turbidity ([1]; 1% in 1/1 EG/water) [NTU],CONTACT ANGLES (At 5 Minutes) Modine Solder ([2]; 0.02% surface modifier) [°],CONTACT ANGLES (At 5 Minutes) Modine Solder ([2]; 0.05% surface modifier) [°],CONTACT ANGLES (At 5 Minutes) Modine Solder ([2]; 0.1% surface modifier) [°],turbidity and transmittance ([1]; below the solubility limit (5% in EG and 0.2% in 1/1 EG/water)),CONTACT ANGLES (At 5 Minutes) ASTM Solder [3] [°],CONTACT ANGLES (At 5 Minutes) Al [3] [°],CONTACT ANGLES (At 5 Minutes) Brass [3] [°],CONTACT ANGLES (At 5 Minutes) Cu [3] [°],CONTACT ANGLES (At 5 Minutes) Fe [3] [°],CONTACT ANGLES (At 5 Minutes) Steel [3] [°]
BUO(PO)₅C₃H₆5 Si (CH₃O)₃ [PO functional silane],–,–,–,–,138,–,138,139,63,27,90,65
CCCCCCCCCCCC(=O)O [lauric acid],–,–,–,117,–,–,–,–,–,–,–,–
C₁₅hydroxyalkanesulfonate,–,–,–,–,120,–,150,145,57,58,108,160
